Reference: ChEMBL document CHEMBL2146473 (Bioorg Med Chem, 2012)
One block for each compound: values may come before it. Activity calls are given as the source filed them. The rule behind the calls is not given here.

Legend:
[1] = organism: Rattus norvegicus; test: animal or person; type: functional; conditions: Wistar, Plasma, po, 0.5 h
[2] = organism: Rattus norvegicus; test: animal or person; type: functional; conditions: Wistar, Plasma, po, 9 h
[3] = target: Dipeptidyl peptidase 4 (Rattus norvegicus, UniProt P14740); type: cell-free, Plasma
Description: Inhibition of DPP4 in rat plasma using GLY-Pro-MCA as substrate after 60 mins by fluorescence assay

[4] = tested on: Rattus norvegicus; test: Inhibition of DPP4 in po dosed Wistar rat plasma using GLY-Pro-MCA as substrate after 48 hrs by fluorescence assay; type: functional, organism-based
[5] = tested on: Rattus norvegicus; test: Antidiabetic activity in Zucker fatty rat assessed as decrease in AUC (0 to 60 mins) of plasma glucose level at 0.03 to 1 mg/kg, po administered 30 mins prior to glucose challenge by oral glucose tolerance test; type: functional, organism-based
[6] = tested on: Rattus norvegicus; test: Antidiabetic activity in Zucker fatty rat assessed as normalization of glucose excursion at 0.03 mg/kg, po administered 30 mins prior to glucose challenge by oral glucose tolerance test relative to lean-control; type: functional, organism-based; parameters: dose 0.03 mg/kg
[7] = tested on: Rattus norvegicus; test: Antidiabetic activity in Zucker fatty rat assessed as decrease in plasma glucose excursion at 0.03 to 1 mg/kg, po administered 30 mins prior to glucose challenge by oral glucose tolerance test; type: functional, organism-based
[8] = tested on: Rattus norvegicus; test: Sustained inhibition of DPP4 in Wistar rat plasma using GLY-Pro-MCA as substrate at 1 mg/kg, po measured up to 24 hrs by fluorescence assay; type: functional, organism-based; parameters: dose 1 mg/kg
[9] = Oral bioavailability in rat at 0.3 mg/kg; type: ADME, organism-based; conditions: in vivo
[10] = Tmax in monkey at 1 mg/kg, po; type: ADME, organism-based, Macaca mulatta; parameters: dose 1 mg/kg, route oral; conditions: rhesus monkey, in vivo
[11] = AUC (0 to infinity) in rat at 0.3 mg/kg, po; type: ADME, organism-based; parameters: time infinity, dose 0.3 mg/kg, route oral; conditions: plasma
[12] = Cmax in monkey at 1 mg/kg, po; type: ADME, organism-based, Macaca mulatta; parameters: dose 1 mg/kg, route oral; conditions: rhesus monkey, in vivo
[13] = Cmax in rat at 0.3 mg/kg, po; type: ADME, organism-based; parameters: dose 0.3 mg/kg, route oral; conditions: in vivo
[14] = Terminal half life in rat at 0.3 mg/kg, po; type: ADME, organism-based; parameters: dose 0.3 mg/kg, route oral; conditions: in vivo, read-out: beta t1/2 (converted)
[15] = AUC (0 to infinity) in monkey at 0.3 mg/kg, po; type: ADME, organism-based, Macaca mulatta; parameters: time infinity, dose 0.3 mg/kg, route oral; conditions: rhesus monkey, plasma
[16] = AUC (0 to infinity) in monkey at 1 mg/kg, po; type: ADME, organism-based, Macaca mulatta; parameters: time infinity, dose 1 mg/kg, route oral; conditions: rhesus monkey, plasma
[17] = Terminal half life in rat at 1 mg/kg, po; type: ADME, organism-based; parameters: dose 1 mg/kg, route oral; conditions: in vivo, read-out: beta t1/2 (converted)
[18] = Tmax in rat at 0.3 mg/kg, po; type: ADME, organism-based; parameters: dose 0.3 mg/kg, route oral; conditions: in vivo
[19] = Tmax in rat at 1 mg/kg, po; type: ADME, organism-based; parameters: dose 1 mg/kg, route oral; conditions: in vivo
[20] = Terminal half life in monkey at 0.1 mg/kg, po; type: ADME, organism-based, Macaca mulatta; parameters: dose 0.1 mg/kg, route oral; conditions: rhesus monkey, in vivo, read-out: beta t1/2 (converted)
[21] = Oral bioavailability in monkey at 0.1 mg/kg; type: ADME, organism-based, Macaca mulatta; conditions: rhesus monkey, in vivo
[22] = Oral bioavailability in rat at 1 mg/kg; type: ADME, organism-based; conditions: in vivo
[23] = Terminal half life in rat at 0.1 mg/kg, po; type: ADME, organism-based; parameters: dose 0.1 mg/kg, route oral; conditions: in vivo, read-out: beta t1/2 (converted)
[24] = Cmax in rat at 1 mg/kg, po; type: ADME, organism-based; parameters: dose 1 mg/kg, route oral; conditions: in vivo
[25] = AUC (0 to infinity) in rat at 0.1 mg/kg, po; type: ADME, organism-based; parameters: dose 0.1 mg/kg, route oral, time infinity; conditions: plasma
[26] = Tmax in monkey at 0.3 mg/kg, po; type: ADME, organism-based, Macaca mulatta; parameters: dose 0.3 mg/kg, route oral; conditions: rhesus monkey, in vivo
[27] = Tmax in rat at 0.1 mg/kg, po; type: ADME, organism-based; parameters: dose 0.1 mg/kg, route oral; conditions: in vivo
[28] = Oral bioavailability in rat at 0.1 mg/kg; type: ADME, organism-based; conditions: in vivo
[29] = Tmax in monkey at 0.1 mg/kg, po; type: ADME, organism-based, Macaca mulatta; parameters: dose 0.1 mg/kg, route oral; conditions: rhesus monkey, in vivo
[30] = Oral bioavailability in monkey at 1 mg/kg; type: ADME, organism-based, Macaca mulatta; conditions: rhesus monkey, in vivo
[31] = Oral bioavailability in monkey at 0.3 mg/kg; type: ADME, organism-based, Macaca mulatta; conditions: rhesus monkey, in vivo
[32] = AUC (0 to infinity) in monkey at 0.1 mg/kg, po; type: ADME, organism-based, Macaca mulatta; parameters: time infinity, dose 0.1 mg/kg, route oral; conditions: rhesus monkey, plasma
[33] = Cmax in monkey at 0.3 mg/kg, po; type: ADME, organism-based, Macaca mulatta; parameters: dose 0.3 mg/kg, route oral; conditions: rhesus monkey, in vivo
[34] = Terminal half life in monkey at 1 mg/kg, po; type: ADME, organism-based, Macaca mulatta; parameters: dose 1 mg/kg, route oral; conditions: rhesus monkey, in vivo, read-out: beta t1/2 (converted)
[35] = Cmax in rat at 0.1 mg/kg, po; type: ADME, organism-based; parameters: dose 0.1 mg/kg, route oral; conditions: in vivo
[36] = Cmax in monkey at 0.1 mg/kg, po; type: ADME, organism-based, Macaca mulatta; parameters: dose 0.1 mg/kg, route oral; conditions: rhesus monkey, in vivo
[37] = AUC (0 to infinity) in rat at 1 mg/kg, po; type: ADME, organism-based; parameters: time infinity, dose 1 mg/kg, route oral; conditions: plasma
[38] = Terminal half life in monkey at 0.3 mg/kg, po; type: ADME, organism-based, Macaca mulatta; parameters: dose 0.3 mg/kg, route oral; conditions: rhesus monkey, in vivo, read-out: beta t1/2 (converted)

Dipeptidyl peptidase 4, sequence (P14740 whole entry): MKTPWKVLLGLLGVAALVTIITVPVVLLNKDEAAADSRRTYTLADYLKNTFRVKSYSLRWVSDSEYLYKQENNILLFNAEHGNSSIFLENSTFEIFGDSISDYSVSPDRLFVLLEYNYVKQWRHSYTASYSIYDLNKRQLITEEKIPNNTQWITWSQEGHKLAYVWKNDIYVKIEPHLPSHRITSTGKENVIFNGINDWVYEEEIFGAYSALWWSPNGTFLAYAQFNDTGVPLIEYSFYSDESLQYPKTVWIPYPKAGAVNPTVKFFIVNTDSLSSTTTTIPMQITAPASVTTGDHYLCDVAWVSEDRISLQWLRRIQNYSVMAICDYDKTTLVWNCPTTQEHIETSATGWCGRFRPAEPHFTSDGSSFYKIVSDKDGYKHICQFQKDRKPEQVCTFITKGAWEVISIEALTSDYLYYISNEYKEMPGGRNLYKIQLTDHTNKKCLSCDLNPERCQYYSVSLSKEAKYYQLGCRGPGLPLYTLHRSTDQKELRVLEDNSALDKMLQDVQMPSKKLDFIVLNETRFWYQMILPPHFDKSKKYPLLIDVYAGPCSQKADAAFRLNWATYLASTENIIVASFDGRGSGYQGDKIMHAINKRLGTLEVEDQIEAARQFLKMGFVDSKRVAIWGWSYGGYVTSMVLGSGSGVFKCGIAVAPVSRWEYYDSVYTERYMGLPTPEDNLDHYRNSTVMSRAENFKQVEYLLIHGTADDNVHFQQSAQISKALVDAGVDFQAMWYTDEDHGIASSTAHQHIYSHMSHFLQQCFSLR

SMILES: Cc1cc(N2CCN([C@@H]3CN[C@H](C(=O)N4CCSC4)C3)CC2)n(-c2ccccc2)n1 [TENELIGLIPTIN]
inhibition in vivo at 3 µmol/kg [1]: 94.8%
inhibition in vivo at 3 µmol/kg [2]: 78.3%

SMILES: Cc1cc(N2CCN([C@@H]3CN[C@H](C(=O)N4CCSC4)C3)CC2)n(-c2ccccc2)n1
inhibition [4]: Dose-dependent effect
Activity [5]: Active
Activity [6]: Active
Activity [7]: Active
inhibition [8]: Active

SMILES: O=C([C@@H]1C[C@H](N2CCN(c3nnnn3C3CCCCC3)CC2)CN1)N1CCSC1
inhibition in vivo at 3 µmol/kg [1]: 25.6%
IC50 [3]: 3.1 nM
inhibition in vivo at 3 µmol/kg [2]: 10.5%

SMILES: Cc1cc(N2CCN([C@@H]3CN[C@H](C(=O)N4CCSC4)C3)CC2)n(-c2ccccn2)n1
inhibition in vivo at 3 µmol/kg [1]: 83%
inhibition in vivo at 3 µmol/kg [2]: 53.7%

SMILES: O=C([C@@H]1C[C@H](N2CCC(c3nnnn3-c3ccccc3)CC2)CN1)N1CCSC1
IC50 [3]: 2.9 nM

SMILES: O=C([C@@H]1C[C@H](N2CCN(c3nc(-c4ccccc4)cs3)CC2)CN1)N1CCSC1
IC50 [3]: 5.4 nM

SMILES: O=C([C@@H]1C[C@H](N2CCN(c3ccnc4ccccc34)CC2)CN1)N1CCSC1
inhibition in vivo at 3 µmol/kg [1]: 29.7%
inhibition in vivo at 3 µmol/kg [2]: 12.9%

SMILES: O=C([C@@H]1C[C@H](N2CCC(c3cc(C(F)(F)F)nn3-c3ccccc3)CC2)CN1)N1CCSC1
IC50 [3]: 2.5 nM

SMILES: O=C([C@@H]1C[C@H](N2CCN(c3cc(C(F)(F)F)nn3-c3ccccc3)CC2)CN1)N1CCSC1
inhibition in vivo at 3 µmol/kg [1]: 87.4%
inhibition in vivo at 3 µmol/kg [2]: 81.8%

SMILES: O=C([C@@H]1C[C@H](N2CCN(c3ccccn3)CC2)CN1)N1CCSC1
inhibition in vivo at 3 µmol/kg [1]: 62.7%
inhibition in vivo at 3 µmol/kg [2]: 19.7%

The next lines start with results.

IC50 [3]: 0.69 nM
SMILES: O=C([C@@H]1C[C@H](N2CCN(c3ccnn3-c3ccccc3)CC2)CN1)N1CCSC1
inhibition in vivo at 3 µmol/kg [1]: 90.6%
inhibition in vivo at 3 µmol/kg [2]: 50.8%

IC50 [3]: 2.3 nM
SMILES: Cc1cc(N2CCN([C@@H]3CN[C@H](C(=O)N4CCSC4)C3)CC2)n(-c2ccc(F)cc2)n1

IC50 [3]: 0.53 nM
SMILES: Cc1cc(N2CCN([C@@H]3CN[C@H](C(=O)N4CCSC4)C3)CC2)n(-c2ccccc2F)n1
inhibition in vivo at 3 µmol/kg [1]: 75.9%
inhibition in vivo at 3 µmol/kg [2]: 34.7%

IC50 [3]: 14 nM
SMILES: Cc1cc(N2CCN([C@@H]3CN[C@H](C(=O)N4CCSC4)C3)CC2)n(-c2ccc(C#N)cn2)n1

IC50 [3]: 0.18 nM
SMILES: O=C([C@@H]1C[C@H](N2CCN(c3nnnn3-c3ccccc3)CC2)CN1)N1CCSC1
inhibition in vivo at 3 µmol/kg [1]: 85.1%
inhibition in vivo at 3 µmol/kg [2]: 70.7%

IC50 [3]: 4.7 nM
SMILES: Cc1cc(N2CCN([C@@H]3CN[C@H](C(=O)N4CCSC4)C3)CC2)n(-c2ccncc2)n1

IC50 [3]: 0.77 nM
SMILES: Cc1cc(N2CCN([C@@H]3CN[C@H](C(=O)N4CCSC4)C3)CC2)n(-c2cccnc2)n1
inhibition in vivo at 3 µmol/kg [1]: 66.9%
inhibition in vivo at 3 µmol/kg [2]: 40.8%

IC50 [3]: 0.19 nM
SMILES: O=C([C@@H]1C[C@H](N2CCN(c3nccn3-c3ccccc3)CC2)CN1)N1CCSC1
inhibition in vivo at 3 µmol/kg [1]: 59.3%
inhibition in vivo at 3 µmol/kg [2]: 58%

bioavailability [9]: 63%
Tmax [10]: 0.88 h
AUC(0-inf) [11]: 202 ng·h/mL
Cmax [12]: 274 ng/mL
Cmax [13]: 20.6 ng/mL
half-life [14]: 8.97 h
AUC(0-inf) [15]: 613 ng·h/mL
AUC(0-inf) [16]: 1570 ng·h/mL
half-life [17]: 8.43 h
Tmax [18]: 0.75 h
Tmax [19]: 0.75 h
half-life [20]: 18.9 h
bioavailability [21]: 83.2%
bioavailability [22]: 62.9%
half-life [23]: 15.8 h
Cmax [24]: 152 ng/mL
AUC(0-inf) [25]: 91.8 ng·h/mL
Tmax [26]: 1.38 h
Tmax [27]: 0.88 h
bioavailability [28]: 85.9%
Tmax [29]: 0.5 h
bioavailability [30]: 44.1%
bioavailability [31]: 57.6%
AUC(0-inf) [32]: 295 ng·h/mL
Cmax [33]: 85.1 ng/mL
half-life [34]: 16.1 h
Cmax [35]: 5.48 ng/mL
Cmax [36]: 28.3 ng/mL
AUC(0-inf) [37]: 673 ng·h/mL
half-life [38]: 15.2 h
SMILES: Br.Cc1cc(N2CCN([C@@H]3CN[C@H](C(=O)N4CCSC4)C3)CC2)n(-c2ccccc2)n1

IC50 [3]: 13 nM
SMILES: Cc1cc(N2CCN([C@@H]3CN[C@H](C(=O)N4CCSC4)C3)CC2)n(-c2ccc(C#N)cc2)n1

IC50 [3]: 0.49 nM
SMILES: Cc1cc(N2CCN([C@@H]3CN[C@H](C(=O)N4CCSC4)C3)CC2)n(-c2cccc(F)c2)n1
inhibition in vivo at 3 µmol/kg [1]: 96.1%
inhibition in vivo at 3 µmol/kg [2]: 75.1%

IC50 [3]: 2.9 nM
SMILES: Cc1cc(N2CCN([C@@H]3CN[C@H](C(=O)N4CCSC4)C3)CC2)n(-c2ccc(Cl)cc2)n1
